Results on twelve molecules are retold here after patent US8664220B2, “Polycyclic compounds as lysophosphatidic acid receptor antagonists” (Amira Pharmaceuticals, Inc., priority 2009, dated 2014).

This assay deals with T1, human LPA1 (Homo sapiens, UniProt Q92633).
T1 construct: the full-length cDNA for human LPA1 was obtained by PCR of the reverse transcription reaction; expressed in transfected cells
Kind of assay: LPA1 calcium flux assay. Type of assay: cell-based. Particulars: human LPA1 expressing CHO cells, stimulated with 10 nM LPA; read-out: HLPA1 Ca Flux IC50. As to the method:
Establishment of a CHO Cell Line Stably Expressing Human LPA1
A 1.1 kb cDNA encoding the human LPA1 receptor was cloned from human lung.
Human lung RNA (Clontech Laboratories, Inc. USA) was reverse transcribed using the RETROscript kit (Ambion, Inc.) and the full-length cDNA for human LPA1 was obtained by PCR of the reverse transcription reaction. The nucleotide sequence of the cloned human LPA1 was determined by sequencing and confirmed to be identical to the published human LPA1 sequence (An et al. Biochem. Biophys. Res. Commun. 231:619 (1997). The cDNA was cloned into the pcDNA5/FRT expression plasmid and transfected in CHO cells using lipofectamine 2000 (Invitrogen Corp., USA). Clones stably expressing human LPA1 were selected using hygromycin and identified as cells that show Ca-influx in response to LPA.
LPA1 and LPA3 Calcium Flux Assays
Human LPA1 or LPA3 expressing CHO cells are seeded at 20,000-45,000 cells per well in a 96-well poly-D-lysine coated plate one or two days before the assay. Prior to the assay, the cells are washed once with PBS and then cultured in serum-free media overnight. On the day of the assay, a calcium indicator dye (Calcium 4, Molecular Devices) in assay buffer (HBSS with Ca^2+ and Mg^2+ and containing 20 mM Hepes and 0.3% fatty-acid free human serum albumin) is added to each well and incubation continued for 1 hour at 37° C. 10 μl of test compounds in 2.5% DMSO are added to the cells and incubation continued at room temperature for 30 minutes. Cells are the stimulated by the addition of 10 nM LPA and intracellular Ca^2+ measured using the Flexstation 3 (Molecular Devices). IC50s are determined using Graphpad prism analysis of drug titration curves.
Background: Calcium assays in cells follow changes in intracellular calcium, usually with a dye or a luminescent sensor.

T1 sequence (Q92633 whole entry): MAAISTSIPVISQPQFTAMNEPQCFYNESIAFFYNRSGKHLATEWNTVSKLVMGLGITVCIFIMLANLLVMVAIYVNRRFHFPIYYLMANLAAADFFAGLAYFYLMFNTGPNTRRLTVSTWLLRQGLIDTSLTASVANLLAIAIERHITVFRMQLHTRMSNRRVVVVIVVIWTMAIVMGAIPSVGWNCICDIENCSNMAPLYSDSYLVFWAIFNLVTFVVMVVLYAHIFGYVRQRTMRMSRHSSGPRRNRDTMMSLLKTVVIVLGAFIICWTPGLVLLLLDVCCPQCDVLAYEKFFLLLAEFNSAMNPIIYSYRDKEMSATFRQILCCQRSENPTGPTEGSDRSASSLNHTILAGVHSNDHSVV

For `Cc1noc(-c2ccc(-c3ccc(CC(=O)O)cc3)cc2)c1Nc1cccc(-c2ccccc2)n1` [Compound 1-76, {4′-[3-Methyl-4-(6-phenyl-pyridin-2-ylamino)-isoxazol-5-yl]-biphenyl-4-yl}-acetic acid], the IC50 is < 300 nM.
Consider `COc1ncccc1-c1cccc(Nc2c(C)noc2-c2ccc(-c3ccc(C4(C(=O)O)CC4)cc3)cc2)c1` [Compound 1-89, 1-(4′-{4-[3-(2-Methoxy-pyridin-3-yl)-phenylamino]-3-methyl-isoxazol-5-yl}-biphenyl-4-yl)-cyclopropanecarboxylic acid], for which the 50% inhibitory concentration (IC50) is < 300 nM.
In the case of `Cc1noc(-c2ccc(-c3ccc(C4(CC(=O)O)CC4)cc3)cc2)c1C(O)c1nnc(Cc2ccccc2)o1` (stereo not drawn) [Compound 1-60, [1-(4′-{4-[(5-Benzyl-[1,3,4]oxadiazol-2-yl)-hydroxy-methyl]-3-methyl-isoxazol-5-yl}-biphenyl-4-yl)-cyclopropyl]-acetic acid] it was < 300 nM; in that of `Cc1noc(-c2ccc(-c3ccc(C4(C(=O)O)CC4)cc3)cc2)c1Nc1cccc(Sc2ccccc2)n1` [Compound 1-126, 1-{4′-[3-Methyl-4-(6-phenylsulfanyl-pyridin-2-ylamino)-isoxazol-5-yl]-biphenyl-4-yl}-cyclopropanecarboxylic acid], < 300 nM; in that of `Cc1noc(-c2ccc(-c3ccc(C4(C(=O)O)CC4)cc3)cc2)c1Nc1cccc(-c2ccccc2F)n1` [Compound 1-95, 1-(4′-{4-[6-(2-Fluoro-phenyl)-pyridin-2-ylamino]-3-methyl-isoxazol-5-yl}-biphenyl-4-yl)-cyclopropanecarboxylic acid], < 300 nM.
As for `Cc1noc(-c2ccc(-c3ccc(C4(C(=O)NS(C)(=O)=O)CC4)cc3)cc2)c1C(O)c1cn(Cc2ccccc2)nn1` (single isomer, unassigned) [Compound 3-1, N-[1-(4′-{4-[(1-Benzyl-1H-[1,2,3]triazol-4-yl)-hydroxy-methyl]-3-methyl-isoxazol-5-yl}-biphenyl-4-yl)-cyclopropanecarbonyl]-methanesulfonamide], the figure is < 300 nM.
Regarding `Cc1noc(-c2ccc(-c3ccc(C4(C(=O)O)CC4)cc3)cc2)c1Nc1nccc(-c2ccccc2)n1` [Compound 1-115, 1-{4′-[3-Methyl-4-(4-phenyl-pyrimidin-2-ylamino)-isoxazol-5-yl]-biphenyl-4-yl}-cyclopropanecarboxylic acid], the IC50 was < 300 nM.
As for `Cc1noc(-c2ccc(-c3ccc(C4(C(=O)NS(C)(=O)=O)CC4)cc3)cc2)c1Nc1cccc(-c2ccccc2)n1` [Compound 3-6, N-(1-{4′-[3-Methyl-4-(6-phenyl-pyridin-2-ylamino)-isoxazol-5-yl]-biphenyl-4-yl}-cyclopropanecarbonyl)-methanesulfonamide], the half-maximal inhibitory concentration (IC50) is < 300 nM.
As for `Cc1noc(-c2ccc(-c3ccc(C4(C(=O)O)CC4)cc3)cc2)c1Nc1cccc(Cc2ccccc2)n1` [Compound 1-73, 1-{4′-[4-(6-Benzyl-pyridin-2-ylamino)-3-methyl-isoxazol-5-yl]-biphenyl-4-yl}-cyclopropanecarboxylic acid], the figure is < 300 nM; as for `Cc1noc(-c2ccc(-c3ccc(CC(=O)O)cc3)cc2)c1C(O)c1cn(Cc2ccccc2)nn1` (stereo not drawn) [Compound 1-48, (4′-{4-[(1-Benzyl-1H-[1,2,3]triazol-4-yl)-hydroxy-methyl]-3-methyl-isoxazol-5-yl}-biphenyl-4-yl)-acetic acid], < 300 nM.
In the case of `Cc1noc(-c2ccc(-c3ccc(C4(C(=O)O)CC4)cc3)cc2)c1Nc1cc(-c2ccccc2)ccn1` [Compound 1-116, 1-{4′-[3-Methyl-4-(4-phenyl-pyridin-2-ylamino)-isoxazol-5-yl]-biphenyl-4-yl}-cyclopropanecarboxylic acid], the 50% inhibitory concentration (IC50) is < 300 nM.
Consider `Cc1noc(-c2ccc(-c3ccc(C4(C(=O)O)CC4)cc3)cc2)c1C(O)c1cn(Cc2cccc(Cl)c2)nn1` (stereo not drawn) [Compound 1-57, 1-[4′-(4-{[1-(3-Chloro-benzyl)-1H-[1,2,3]triazol-4-yl]-hydroxy-methyl}-3-methyl-isoxazol-5-yl)-biphenyl-4-yl]-cyclopropanecarboxylic acid], for which the IC50 is < 300 nM.

In general, IC50 refers to the concentration that gives 50% inhibition.
